Source: patent publication US5801017A, “Production of recombinant factor Xa inhibitor of leech Hirudo medicinalis” (Bio-Technology General Corp., priority 1994, dated 1998)
Where “and” joins values, the source holds several entries; their conditions need not be identical. Identical values can stand only once. Like-named read-outs stand apart in the source and are kept apart here.

Columns and labels:
FXa = assay: chromogenic FXa inhibitory activity assay (hydrolysis of CHG); format: biochemical, bovine
Experimental: Increasing amounts of FXaI purified on Mono-Q were preincubated for 3 minutes with 2 pmol bovine FXa in a 1 ml cuvette. The initial rate of hydrolysis of the substrate CHG was monitored at 405 nm (see Example 2). Fraction 47 was the peak fraction of a particular purification experiment.
The assay of FXa inhibitory activity is based on the inhibition of the FXa-mediated hydrolysis of the chromogenic substrate methoxycarbonyl-D-cyclohexylglycyl-glycyl-arginyl p-nitroanilide (CHG) as described below.
The appropriate substrate concentration was determined from the molar absorbance which is 8210 at 342 nm. The reaction mixture contains 50 mM Tris-HCl pH 8.2, 5 mM CaCl2, 200 mM NaCl, 0.1% PEG, 40 μM substrate, and approximately 2 nM FXa. The FXa concentration is determined more precisely from the initial (first 20 seconds) rate of CHG hydrolysis at 40 μM in the absence of inhibitor based on the kinetic parameters mentioned above.
Inhibition of the increase in absorbance may be observed in the presence of the FXa inhibitory activity of an FXa inhibitor such as FXaI of the present invention. The inhibitor concentration is the difference in absorbance between the reaction in the presence and absence of inhibitor multiplied by the FXa concentration.
This determination assumes the formation of a 1:1 enzyme-inhibitor complex, and further assumes that the dissociation constant is low enough (i.e., tight binding) to enable essentially total binding of the inhibitor (FXaI) to the enzyme (FXa). In fact, the saturation shape of the dose-response curve (FIG. 3) provides evidence that a finite and not negligible dissociation of the inhibitor-enzyme complex occurs under these conditions. The dose response curve is represented by the degree of inhibition versus FXaI concentration and is further described in Section 5.2.
The degree of dissociation of the FXa-FXaI complex is characterized by the inhibition constant (Ki) and may be determined from the inhibited velocity of the hydrolysis of the chromogenic substrate CHG. […] The Ki of naturally occurring FXa in the chromogenic assay is about 9 nM.
The determination of inhibitor concentration determined by the above method is therefore probably underestimated. It was found useful to define the FXaI concentration as the protein concentration (IC50) required to obtain a constant degree of inhibition, usually 50% and to define the amount causing 50% inhibition under these reaction conditions to be 1 milliunit (mu) or 1 pmol. IC50 is generally higher than Ki, and depending on the type of inhibition, can be shown to depend variously on substrate concentration, Ki, Km and other factors (Segel, I. (1974) "Enzyme Kinetics", Wiley Interscience). In fact, the range of values of IC50 was determined to be about 10-20 nM.
The FXaI activity assay used to determine concentration during purification and characterization was performed in an Elisa Titertek Twin Reader, Type 380 (EF LAB). The final activity measurement of purified protein was also performed in a Phillips (model PU 8720) UV/Vis scanning spectrophotometer.

[1] = target: FXa in a prothrombinase complex; assay: FXa inhibitory activity in the prothrombinase complex (thrombin generation); format: biochemical
Experimental: The inhibitory activity of FXaI may also be assayed by its effect on FXa in a prothrombinase complex. The phospholipid used was rabbit brain cephalin (Sigma). The contents of one vial, suspended in 1 ml 0.15M NaCl were diluted 1:40 in the reaction mixture, i.e. 2.5 μl/100 μl. The concentrations of the other components were: FXa 250 pM, prothrombin 2.67 μM, FVa 4.2 nM and Ca^++ 1 mM in 20 mM Tris-HCl pH 7.4/150 mM NaCl/0.1% polyethylene glycol 6000. Following 10 minutes of preincubation at 37° C., the reaction was initiated by the addition of prothrombin. Aliquots were removed at various time intervals. The reaction was stopped by 10 mM EDTA and aliquots were kept on ice until assayed. The inhibition of FXa by a FXa inhibitor (e.g. FXaI of the present invention) was observed as the effect of FXaI on the generation of thrombin from prothrombin at 37° C. The amount of thrombin generated was assayed using 80 μg of the synthetic thrombin p-nitroanilide substrate S-2238 (KabiVitrum, Sweden) at 23° C.

Plasmin = assay: inhibition of plasmin (S2251); format: biochemical; settings: substrate S2251
Experimental: (§1) Inhibition of bovine trypsin by naturally occurring FXaI was calculated following the classical dose response method. Ki values were obtained by plotting the percentage of activity of FXaI (determined by the calorimetric assay described below) against the ratio of the concentrations of inhibitor and enzyme. The calorimetric assay was performed using 80 μM Chromozyme TH (Pentapharm, Switzerland) as substrate in 10 mM Tris-HCl, 10 mM Hepes (pH 7.8), 100 mM NaCl, 0.1% PEG 6000 at 25° C. in the presence of 3.83 or 4.27 nM bovine trypsin. Inhibitor and enzyme were preincubated for 10 min at 25° C. before adding the substrate.
(§2) Plasmin and thrombin were not inhibited by naturally occurring FXaI in a similar assay as that for trypsin. In the case of thrombin, the substrate used was the same as that used for trypsin; in the case of plasmin, S2251 was used as substrate.

thrombin [2] = assay: inhibition of thrombin (Chromozyme TH); format: biochemical; settings: substrate Chromozyme TH
Experimental: as §1, §2

[3] = pharmacokinetic study in mice, ex vivo APTT; design: species or system Female Balb/c mice; settings: for Mean APTT: ex vivo, i.v. 5.25 μg/mouse
Experimental: The clearance of FXaI from the blood of female mice was monitored over a period of 30 minutes by assessing the ex vivo APTT (see FIG. 4) at the time points indicated. The amount of FXaI is expressed as μg FXaI [Macart and Gerbaut, Clin. Chim. Acta 122:93-101 (1982)], determined from a calibration curve consisting of in vitro APTT time versus inhibitor concentration as shown in FIG. 5B.
A preliminary pharmacokinetic experiment was performed in order to assess the clearance rate of FXaI from the circulatory system. Female Balb/c mice (20-25 gm body weight) were injected intravenously with purified FXaI (isoform A; 5.25 μg protein/mouse in 0.2 ml saline). Blood samples were drawn into 1/10 v/v 3.8% citrate at 1, 3, 10 and 30 min after injection. It was possible to obtain only one blood sample from each mouse and therefore each timepoint is from a different mouse. The plasma was then separated and assayed for APTT. The concentration of FXaI was calculated from a calibration curve of APTT versus FXaI concentration which was constructed in vitro by adding various amounts of FXaI to a plasma pool from untreated mice FIG. 5B.

thrombin [4] = assay: thrombin inhibition assay according to Lottenberg et al.; format: biochemical
Experimental: The refolded and dialyzed protein so obtained was assayed for FXa inhibitory activity by the biochemical chromogenic assay described in Example 2. The results are shown in Table 6 as milliunits per mg protein (mu/mg). The amount of protein causing 50% inhibition in an assay mixture containing 2 nM FXa is defined as 1 mu. In addition, the refolded protein was also tested for its inhibitory effect on thrombin, another proteolytic enzyme of the coagulation cascade, which was assayed according to Lottenberg et al. Methods Enzymol. 80:341-361 (1981).

plasma = assay: APTT doubling by recombinant mature FXaI; format: biochemical
Experimental: The inhibitory activity of FXaI was also assayed as the increase of the activated partial thromboplastin time (APTT) essentially as described in Spaethe, Haemostasis, AHS/Deutschland GmbH, Munich (1984), using as reagent Actin FS (Dade), which contains ellagic acid for activation of Factors XII and Factor XI, and soy bean phospholipid. Under these conditions, and in the presence of 20 mM CaCl2, only the intrinsic pathway of coagulation is activated.

| Molecule | Inhibitory activity (specific activity), FXa (FXa; 1 mu = amount causing 50% inhibition with 2 nM FXa) [mu/mg] | IC50 (FXa; chromogenic assay, read-out: IC50 (protein concentration for 50% inhibition)) [nM] | Ki ([1]; 50 pM FXa, 1.35 μM prothrombin, read-out: Ki in prothrombinase complex assay, modified protocol) [nM] | IC50 ([1]; 250 pM FXa, 2.67 μM prothrombin) [nM] | Ki ([1]; 250 pM FXa, 2.67 μM prothrombin, read-out: Ki in prothrombinase complex assay) [nM] | inhibition of plasmin (Plasmin) | inhibition of thrombin (thrombin [2]) | FXaI calculated from the calibration curve ([3]; 1 min post-injection) [µg] | FXaI calculated from the calibration curve ([3]; 3 min post-injection) | FXaI calculated from the calibration curve ([3]; 10 min post-injection) [µg] | FXaI calculated from the calibration curve ([3]; 30 min post-injection) [µg] | Mean APTT ([3]; 1 min post-injection) [s] | Mean APTT ([3]; 3 min post-injection) | Mean APTT ([3]; 10 min post-injection) [s] | Mean APTT ([3]; 30 min post-injection) | half life of plasma inhibitor activity ([3]; mice, intravenous, 5.25 μg protein/mouse) | Inhibitory activity (specific activity), Thrombin (thrombin [4]) [mu/mg] | FXa inhibitory specific activity (FXa; after removal of the extension peptide from the cleavage solution by chromatography) [mu/mg protein] | FXa inhibitory specific activity (FXa; following cleavage with enterokinase) | concentration causing doubling of the APTT (plasma) [µg/mL] |
| --- | --- | --- | --- | --- | --- | --- | --- | --- | --- | --- | --- | --- | --- | --- | --- | --- | --- | --- | --- | --- |
| naturally occurring FXaI: FXa inhibitor protein isolated from dilute leech saliva (DLS) of the leech Hirudo medicinalis; 14 kD monomer | 507 | 10 to 20 | 0.12 | 0.19 | 0.072 | not inhibited | not inhibited | 0.3150 | 0.243 µg and 0.174 µg | 0.1245 | 0 | 91 | 79 s and 66 s | 55 | 29 s and 30 s | about 7.5 min | < 1 |  |  |  |
| mature FXaI: recombinant FXaI obtained by enterokinase cleavage of the pFSHI-6 prepeptide, about 15 kD (protein) YEVIYVDDPCEDSDCEDGNKCSPVTNECDCSPVRCRLHCNFYVKDSNGCETCACEPKCKHKNCPTGHHCNKLTNKCELKKQRRMG |  |  |  |  |  |  |  |  |  |  |  |  |  |  |  |  |  | ≤ 8000 | 4000-4500 mu/mg protein | 12.2 |
